The numbers were not newly measured in patent publication US6733789B1 (Biovail Laboratories, Inc., priority 1999, dated 2004), which cites them from elsewhere.

With `CC(C)NCC(O)COc1ccc(COCCOC(C)C)cc1` (stereo not drawn) [bisoprolol], the peak plasma concentration (after a 10 mg dose, oral) was 40 ng/mL. Besides, the “effect of food on peak plasma concentrations” value (concomitant food intake or fasting) is given as “appear not to be affected by concomitant food intake or fasting”. Moreover, the “dependence of pharmacokinetic properties on age or dose” value (dose range 2.5-100 mg) is on record as “not dependent on age or dose”. For the same compound, under “in vivo”, the “excreted unchanged in the urine” value is given as “About 50%” and the “mean plasma half life” value was 10 to 12 h. Further, for the setting “oral administration”, the pre-systemic metabolism result was “below 10%” and the “time to peak plasma concentrations” value is “three”. For the same compound, the adverse effects entry (spontaneously mentioned by patients treated with bisoprolol) is “Dizziness, headache and tiredness are the most frequent adverse effects”. Further, the “biotransformed in the liver” value (subsequent elimination of inactive metabolites via the kidneys) was 50%.
